Consider one substance from US20150337010A1, “Method for treating or preventing liver related diseases” (Tunghai University, priority 2014, published 2015).

Holding throughout (type): in vivo, C57BL/6 male mice
The subject of assay [1] is matrix metalloproteinase-9. Put plainly: Western blotting of liver protein extract: MMP-9 (hepatic fibrosis biomarker). Conditions: high-fat diet mice, groups 3~5 (5, 15, 25 mg/kg/day i.p.), normalized with tubulin, compared with group 2. How it is done: (§1) The experiments using the experimental mice were conducted according to the IACUC-100-12 protocol approved by Academia Sinica Institutional Animal Care and Utilization Committee (IACUC) ethics committee. All C57BL/6 male mice (6-weeks-old) were randomly divided into 5 groups that contain 8 mice in each. These mice were individually housed in a room temperature at 24±2° C. and 55±10% humidity with 12 hours of light cycle. Herein, the control mice in the group 1 were fed with standard laboratory diet and administrated 0.9% normal saline by intra-peritoneal injection. In the group 2, the mice were fed with high-fat diet to induce the fatty liver, and administrated 0.9% normal saline by intra-peritoneal injection. […]
(§2) Protein concentration of extract was determined by Lowry's protein assay method, first. […]
According to method in example 5, protein extract of mouse liver in the each group prepared in example 4 was subjected to determine the expression pattern and relative level of matrix metalloproteinase-9 (hereafter referred to as MMP 9). The results were shown in FIG. 13 and FIG. 14, wherein in FIG. 13, the expression of tubulin was utilized as the internal control in the western blotting and in FIG. 14, the quantified expression level of MMP-9 in the mouse liver of the each group was calculated with normalized with quantified expression level of tubulin.

Another assay has as its system PPARα. Description: Western blotting of liver protein extract: PPARα. Conditions: high-fat diet mice, groups 3~5 (5, 15, 25 mg/kg/day i.p.), normalized with tubulin, compared with group 2. Here is the method: as §1, §2
According to method in example 5, protein extract of mouse liver in each group prepared in example 4 was subjected to determine the expression pattern and relative level of PPARα. The results were shown in FIG. 15 and FIG. 16, wherein the expression of tubulin was utilized as the internal control in FIG. 15 and the quantified expression level of PPARα in the mouse livers of the each group was calculated with normalized with quantified expression level of tubulin in FIG. 16.

The test system of another assay is IL-6. Description: Western blotting of liver protein extract: IL-6. The note with it: high-fat diet mice, groups 3~5 (5, 15, 25 mg/kg/day i.p.), normalized with tubulin, compared to group 2. How it is done: as §1, §2
(§3) According to the methods in example 4 and 5, preparing the protein extract of mouse liver in the each group and then the expression pattern of TNFα and IL-6 in mouse liver of the each group was determined by western blotting. The results were shown in FIG. 5 and FIG. 6, wherein the expression of tubulin was utilized as internal control in FIG. 5 and FIG. 6 and the relative amount of TNFα and IL-6 in mouse liver of the each group were separately quantified and normalization with the internal control.

A further assay relates to Bax. Description: Western blotting of liver protein extract: Bax. Conditions: high-fat diet mice, groups 3~5 (5, 15, 25 mg/kg/day i.p.), normalized with tubulin, compared with group 2. How it is done: (§4) The experiments using the experimental mice were conducted according to the IACUC-100-12 protocol approved by Academia Sinica Institutional Animal Care and Utilization Committee (IACUC) ethics committee. All C57BL/6 male mice (6-weeks-old) were randomly divided into 5 groups that contain 8 mice in each. These mice were individually housed in a room temperature at 24±2° C. and 55±10% humidity with 12 hours of light cycle. Herein, the control mice in the group 1 were fed with standard laboratory diet and administrated 0.9% normal saline by intra-peritoneal injection. […]
as §2
(§5) The protein extract of the mouse liver of the each group was prepared in example 4 and then to determine the expressions of apoptosis and survive related proteins using western blotting of example 5. The expression pattern of the apoptosis and survive related proteins were shown in FIG. 7 to FIG. 12, wherein the expression of tubulin was utilized as the internal control in western blot analysis in FIG. 7, FIG. 9 and FIG. 11, and the relative expression levels of the apoptosis and survive related proteins in mouse liver were normalized with tubulin for quantification in FIG. 8, FIG. 10 and FIG. 12. […]

For the next assay, the system named is TNFα. Description: Western blotting of liver protein extract: TNFα. Conditions: high-fat diet mice, groups 3~5 (5, 15, 25 mg/kg/day i.p.), normalized with tubulin, compared to group 2. How it is done:
as §1, §2, §3

The subject of another assay is PI3K. Put plainly: Western blotting of liver protein extract: PI3K. The note with it: high-fat diet mice, groups 3~5 (5, 15, 25 mg/kg/day i.p.), normalized with tubulin, compared with group 2. How it is done: as §4, §2, §5
Another assay deals with Caspase-3. Put plainly: Western blotting of liver protein extract: Caspase-3. The note with it: high-fat diet mice, groups 3~5 (5, 15, 25 mg/kg/day i.p.), normalized with tubulin, compared with group 2. Here is the method: as §4, §2, §5
In a further assay the test system is cytochrome c. Put plainly: Western blotting of liver protein extract: cytochrome c. The note with it: high-fat diet mice, groups 3~5 (5, 15, 25 mg/kg/day i.p.), normalized with tubulin, compared with group 2. How it is done:
as §4, §2, §5

The next assay relates to mouse liver. Description: Histopathological examination (H&E) of mouse liver, high-fat diet fed mice. The note with it: high-fat diet mice, 5, 15 or 25 mg/kg/day intra-peritoneal (groups 3~5). Here is the method: The experiments using the experimental mice were conducted according to the IACUC-100-12 protocol approved by Academia Sinica Institutional Animal Care and Utilization Committee (IACUC) ethics committee. All C57BL/6 male mice (6-weeks-old) were randomly divided into 5 groups that contain 8 mice in each. These mice were individually housed in a room temperature at 24±2° C. and 55±10% humidity with 12 hours of light cycle. Herein, the control mice in the group 1 were fed with standard laboratory diet and administrated 0.9% normal saline by intra-peritoneal injection. In the group 2, the mice were fed with high-fat diet to induce the fatty liver, and administrated 0.9% normal saline by intra-peritoneal injection. In the group 3, the mice were fed with high-fat diet and administrated with peptide of SEQ ID No.1 by intra-peritoneal injected with the dose of 5 mg/kg/day. In the group 4, the mice were fed with high-fat diet and administrated with peptide of SEQ ID No.1 by intra-peritoneal injected with the dose of 15 mg/kg/day. In the group 5, the mice were fed with high-fat diet and administrated with peptide of SEQ ID No.1 by intra-peritoneal injected with the dose of 25 mg/kg/day. The inter-peritoneal injections were performed on these mice between third to sixth weeks of culture.
The livers were excised from the mice of the each group; soaked in formalin; dehydrated by passing consecutively through […] and then embedded in paraffin wax. The each embedded liver tissue block was cut into […] sections and deparaffinization by soaking in xylene. The histological section of the mouse liver in the each group was consecutively stained by hematoxylin and eosin (H&E) and rinsed with water. The photomicrographs of the histological section of the mouse liver in the each group obtained using Zeiss Axiophot microscope (Thornwood Co, USA.) were shown in FIG. 3 and FIG. 4.

The test system of another assay is Caspase-8. Put plainly: Western blotting of liver protein extract: Caspase-8. Conditions: high-fat diet mice, groups 3~5 (5, 15, 25 mg/kg/day i.p.), normalized with tubulin, compared with group 2. How it is done: as §4, §2, §5
A short description of assay [2]: LDL-cholesterol and triglyceride in blood plasma of high-fat diet fed mice. Conditions: high-fat diet mice, 5, 15 or 25 mg/kg/day intra-peritoneal (groups 3~5), compared with group 2 (high-fat diet, saline). How it is done:
The experiments using the experimental mice were conducted according to the IACUC-100-12 protocol approved by Academia Sinica Institutional Animal Care and Utilization Committee (IACUC) ethics committee. All C57BL/6 male mice (6-weeks-old) were randomly divided into 5 groups that contain 8 mice in each. These mice were individually housed in a room temperature at 24±2° C. and 55±10% humidity with 12 hours of light cycle. Herein, the control mice in the group 1 were fed with standard laboratory diet and administrated 0.9% normal saline by intra-peritoneal injection. In the group 2, the mice were fed with high-fat diet to induce the fatty liver, and administrated 0.9% normal saline by intra-peritoneal injection. In the group 3, the mice were fed with high-fat diet and administrated with peptide of SEQ ID No.1 by intra-peritoneal injected with the dose of 5 mg/kg/day. In the group 4, the mice were fed with high-fat diet and administrated with peptide of SEQ ID No.1 by intra-peritoneal injected with the dose of 15 mg/kg/day. […]
The blood samples collected from the mice in each group indicated in example 1 into the microcentrifuge tubes containing heparin (10 μL, 1000 IU/ml). […] The concentration of low density lipoprotein-cholesterol (hereafter referred to as LDL) and triglyceride in the isolated blood plasma from the mice in the each group were determined by using the commercial detection kit.

The subject of another assay is IGFIR. Description: Western blotting of liver protein extract: IGFIR. The note with it: high-fat diet mice, groups 3~5 (5, 15, 25 mg/kg/day i.p.), normalized with tubulin, compared with group 2. Here is the method: as §4, §2, §5
A further assay deals with Bcl-2. Put plainly: Western blotting of liver protein extract: Bcl-2. Conditions: high-fat diet mice, groups 3~5 (5, 15, 25 mg/kg/day i.p.), normalized with tubulin, compared with group 2. How it is done: as §4, §2, §5
The test system of another assay is Caspase-9. Put plainly: Western blotting of liver protein extract: Caspase-9. Conditions: high-fat diet mice, groups 3~5 (5, 15, 25 mg/kg/day i.p.), normalized with tubulin, compared with group 2. Here is the method: as §4, §2, §5
For a further assay, the system named is AKT. Description: Western blotting of liver protein extract: AKT. Conditions: high-fat diet mice, groups 3~5 (5, 15, 25 mg/kg/day i.p.), normalized with tubulin, compared with group 2. How it is done: as §4, §2, §5

As to “peptide of SEQ ID No.1: isolated peptide containing an amino acid sequence of SEQ ID No.1; obtainable by extraction, hydrolyzation or chemical synthesis (VHVV)”, the “expression level of MMP-9 in mouse liver” value in [1] is recorded as “obviously suppressed”. In addition, the “expression level of PPARα in mouse liver” value in the assay with PPARα is “obviously increased”. Also, the “expression level of IL-6 in mouse liver” value with IL-6 was “obviously reduced”. Moreover, the “expression level of Bax (pro-apoptotic factor) in mouse liver” value in the assay on Bax is on record as “obviously suppressed”. Also, the “expression level of TNFα in mouse liver” value in the assay on TNFα is listed as “obviously reduced”. In the assay on PI3K, the “expression level of survival related protein PI3K in mouse liver” value is on record as “obviously higher”. The “expression level of Caspase-3 (pro-apoptotic factor) in mouse liver” value in the assay on Caspase-3 was “obviously suppressed”. In addition, the “expression level of cytochrome c (pro-apoptotic factor) in mouse liver” value in the assay on cytochrome c is “obviously suppressed”. In addition, in the assay on mouse liver (compared with group 2), the “fat accumulation in the mouse liver (H&E)” value is recorded as “obviously decreased”. In addition, in the assay with mouse liver (group 2 filled with giant oil drops), the “giant oil drops in the mouse liver (H&E)” value is “never was observed the giant oil drop”. Also, the “arrangement of hepatocytes in the mouse liver (H&E)” value in the assay on mouse liver (group 2 loosely arranged) is “tightly arranged hepatocytes”. Besides, the “expression level of Caspase-8 (pro-apoptotic factor) in mouse liver” value in the assay with Caspase-8 is recorded as “obviously suppressed”. In addition, in [2], the “concentration of LDL in blood plasma” value is given as “obviously decreased” and the “concentration of triglyceride in blood plasma” value is recorded as “obviously decreased”. In the assay with IGFIR, the “expression level of survival related protein IGFIR (pIGF-IR) in mouse liver” value is reported as “obviously higher”. For the same substance, in the assay on Bcl-2, the “expression level of Bcl-2 in mouse liver” value is “elevated”. Also, the “expression level of Caspase-9 (pro-apoptotic factor) in mouse liver” value with Caspase-9 is on record as “obviously suppressed”. The “expression level of survival related protein AKT (pAKT) in mouse liver” value with AKT is listed as “obviously higher”.
